≈ marks a conversion by molar mass, not a printed value.
Key:
Staphylococcus aureus [1] = test: Antimicrobial activity against Staphylococcus aureus at 1000 ug after 24 hrs by cup plate method; type: functional; details: read-out: DIZ
Bacillus subtilis [2] = test: Antimicrobial activity against Bacillus subtilis at 1000 ug after 24 hrs by cup plate method; type: functional; details: read-out: DIZ
Streptococcus pyogenes [3] = test: Antimicrobial activity against Streptococcus pyogenes at 1000 ug after 24 hrs by cup plate method; type: functional; details: read-out: DIZ
Escherichia coli [4] = test: Antimicrobial activity against Escherichia coli at 1000 ug after 24 hrs by cup plate method; type: functional; details: read-out: DIZ
Salmonella enterica [5] = test: Antimicrobial activity against Salmonella Typhimurium at 1000 ug after 24 hrs by cup plate method; type: functional, Salmonella enterica subsp. enterica serovar Typhimurium; details: read-out: DIZ
Klebsiella pneumoniae [6] = test: Antimicrobial activity against Klebsiella pneumoniae at 1000 ug after 24 hrs by cup plate method; type: functional; details: read-out: DIZ
Aspergillus niger [7] = test: Antimicrobial activity against Aspergillus niger at 1000 ug after 72 hrs by cup plate method; type: functional; details: read-out: DIZ
Candida albicans [8] = test: Antimicrobial activity against Candida albicans at 1000 ug after 72 hrs by cup plate method; type: functional; details: read-out: DIZ
Trichoderma viride [9] = test: Antimicrobial activity against Trichoderma viride at 1000 ug after 72 hrs by cup plate method; type: functional; details: read-out: DIZ
Staphylococcus aureus [10] = test: Antimicrobial activity against Staphylococcus aureus after 24 hrs by liquid dilution method; type: functional
Bacillus subtilis [11] = test: Antimicrobial activity against Bacillus subtilis after 24 hrs by liquid dilution method; type: functional
Streptococcus pyogenes [12] = test: Antimicrobial activity against Streptococcus pyogenes after 24 hrs by liquid dilution method; type: functional
Salmonella enterica [13] = test: Antimicrobial activity against Salmonella Typhimurium after 24 hrs by liquid dilution method; type: functional, Salmonella enterica subsp. enterica serovar Typhimurium
Escherichia coli [14] = test: Antimicrobial activity against Escherichia coli after 24 hrs by liquid dilution method; type: functional
Klebsiella pneumoniae [15] = test: Antimicrobial activity against Klebsiella pneumoniae after 24 hrs by liquid dilution method; type: functional
Aspergillus niger [16] = test: Antimicrobial activity against Aspergillus niger after 24 hrs by liquid dilution method; type: functional
Candida albicans [17] = test: Antimicrobial activity against Candida albicans after 24 hrs by liquid dilution method; type: functional
Trichoderma viride [18] = test: Antimicrobial activity against Trichoderma viride after 24 hrs by liquid dilution method; type: functional

SMILES | zone of inhibition at 1000 µg/disc (Staphylococcus aureus [1]) | zone of inhibition at 1000 µg/disc (Bacillus subtilis [2]) | zone of inhibition at 1000 µg/disc (Streptococcus pyogenes [3]) | zone of inhibition at 1000 µg/disc (Escherichia coli [4]) | zone of inhibition at 1000 µg/disc (Salmonella enterica [5]) | zone of inhibition at 1000 µg/disc (Klebsiella pneumoniae [6]) | zone of inhibition at 1000 µg/disc (Aspergillus niger [7]) | zone of inhibition at 1000 µg/disc (Candida albicans [8]) | zone of inhibition at 1000 µg/disc (Trichoderma viride [9]) | MIC (Staphylococcus aureus [10]) | MIC (Bacillus subtilis [11]) | MIC (Streptococcus pyogenes [12]) | MIC (Salmonella enterica [13]) | MIC (Escherichia coli [14]) | MIC (Klebsiella pneumoniae [15]) | MIC (Aspergillus niger [16]) | MIC (Candida albicans [17]) | MIC (Trichoderma viride [18])
c1ccc(-c2nc3ccccc3c3cc4ccccc4n23)c(-c2nc3ccccc3c3cc4ccccc4n23)c1 | 52 mm | 40 mm | 46 mm | 16 mm | 18 mm | 14 mm | 20 mm | 13 mm | 18 mm | 5 µg/mL (≈ 9.79 µM) | 20 µg/mL (≈ 39.2 µM) | 20 µg/mL (≈ 39.2 µM) | 25 µg/mL (≈ 49 µM) | 20 µg/mL (≈ 39.2 µM) | 30 µg/mL (≈ 58.8 µM) | 20 µg/mL (≈ 39.2 µM) | 35 µg/mL (≈ 68.5 µM) | 35 µg/mL (≈ 68.5 µM)
c1cc(-c2nc3ccccc3c3cc4ccccc4n23)cc(-c2nc3ccccc3c3cc4ccccc4n23)c1 | 51 mm | 46 mm | 48 mm | 20 mm | 35 mm | 18 mm | 12 mm | 15 mm | 21 mm | 5 µg/mL (≈ 9.79 µM) | 15 µg/mL (≈ 29.4 µM) | 15 µg/mL (≈ 29.4 µM) | 20 µg/mL (≈ 39.2 µM) | 10 µg/mL (≈ 19.6 µM) | 35 µg/mL (≈ 68.5 µM) | 30 µg/mL (≈ 58.8 µM) | 30 µg/mL (≈ 58.8 µM) | 25 µg/mL (≈ 49 µM)
c1ccc2c(c1)cc1c3ccccc3nc(-c3ccc(Oc4ccc(-c5nc6ccccc6c6cc7ccccc7n56)cc4)cc3)n21 | 18 mm | 14 mm | 13 mm | 14 mm | 11 mm | 21 mm | 10 mm | 9 mm | 18 mm | – | – | – | – | – | – | – | – | –
c1ccc2c(c1)cc1c3ccccc3nc(-c3csc4ccccc34)n21 | 55 mm | 51 mm | 48 mm | 48 mm | 50 mm | 50 mm | 52 mm | 45 mm | 49 mm | 2.5 µg/mL (≈ 7.13 µM) | 2.5 µg/mL (≈ 7.13 µM) | 5 µg/mL (≈ 14.3 µM) | 2.5 µg/mL (≈ 7.13 µM) | 2.5 µg/mL (≈ 7.13 µM) | 5 µg/mL (≈ 14.3 µM) | 2.5 µg/mL (≈ 7.13 µM) | 10 µg/mL (≈ 28.5 µM) | 2.5 µg/mL (≈ 7.13 µM)
c1ccc2c(c1)cc1c3ccccc3nc(-c3c[nH]c4ccccc34)n21 | 51 mm | 46 mm | 49 mm | 52 mm | 48 mm | 49 mm | 46 mm | 49 mm | 50 mm | 2.5 µg/mL (≈ 7.5 µM) | 15 µg/mL (≈ 45 µM) | 2.5 µg/mL (≈ 7.5 µM) | 2.5 µg/mL (≈ 7.5 µM) | 2.5 µg/mL (≈ 7.5 µM) | 5 µg/mL (≈ 15 µM) | 10 µg/mL (≈ 30 µM) | 5 µg/mL (≈ 15 µM) | 2.5 µg/mL (≈ 7.5 µM)
Cc1ccc2[nH]cc(-c3nc4ccccc4c4cc5ccccc5n34)c2c1 | 52 mm | 42 mm | 45 mm | 42 mm | 46 mm | 48 mm | 50 mm | 51 mm | 46 mm | 5 µg/mL (≈ 14.4 µM) | 10 µg/mL (≈ 28.8 µM) | 5 µg/mL (≈ 14.4 µM) | 5 µg/mL (≈ 14.4 µM) | 2.5 µg/mL (≈ 7.2 µM) | 2.5 µg/mL (≈ 7.2 µM) | 2.5 µg/mL (≈ 7.2 µM) | 20 µg/mL (≈ 57.6 µM) | 5 µg/mL (≈ 14.4 µM)
c1ccc2cc(-c3nc4ccccc4c4cc5ccccc5n34)c(-c3nc4ccccc4c4cc5ccccc5n34)cc2c1 | 50 mm | 45 mm | 39 mm | 12 mm | 14 mm | 35 mm | 17 mm | 16 mm | 12 mm | 5 µg/mL (≈ 8.92 µM) | 15 µg/mL (≈ 26.8 µM) | 15 µg/mL (≈ 26.8 µM) | 35 µg/mL (≈ 62.4 µM) | 35 µg/mL (≈ 62.4 µM) | 20 µg/mL (≈ 35.7 µM) | 35 µg/mL (≈ 62.4 µM) | 25 µg/mL (≈ 44.6 µM) | 30 µg/mL (≈ 53.5 µM)
CC1(C)S[C@@H]2[C@H](NC(=O)[C@H](N)c3ccccc3)C(=O)N2[C@H]1C(=O)O [AMPICILLIN] | 48 mm | 39 mm | 35 mm | 40 mm | 45 mm | 45 mm | – | – | – | 10 µg/mL (≈ 28.6 µM) | 20 µg/mL (≈ 57.2 µM) | 25 µg/mL (≈ 71.5 µM) | 10 µg/mL (≈ 28.6 µM) | 5 µg/mL (≈ 14.3 µM) | 10 µg/mL (≈ 28.6 µM) | – | – | –
c1ccc2c(c1)cc1c3ccccc3nc(-c3ccc(-c4nc5ccccc5c5cc6ccccc6n45)cc3)n21 | 25 mm | 14 mm | 18 mm | 16 mm | 11 mm | 13 mm | 12 mm | 21 mm | 9 mm | – | – | – | – | – | – | – | – | –
COc1ccc2[nH]cc(-c3nc4ccccc4c4cc5ccccc5n34)c2c1 | 50 mm | 49 mm | 39 mm | 50 mm | 42 mm | 46 mm | 49 mm | 48 mm | 49 mm | 5 µg/mL (≈ 13.8 µM) | 5 µg/mL (≈ 13.8 µM) | 10 µg/mL (≈ 27.5 µM) | 5 µg/mL (≈ 13.8 µM) | 5 µg/mL (≈ 13.8 µM) | 5 µg/mL (≈ 13.8 µM) | 10 µg/mL (≈ 27.5 µM) | 15 µg/mL (≈ 41.3 µM) | 10 µg/mL (≈ 27.5 µM)
CC(=O)N1CCN(c2ccc(OCC3COC(Cn4ccnc4)(c4ccc(Cl)cc4Cl)O3)cc2)CC1 (stereo not given) [KETOCONAZOLE] | – | – | – | – | – | – | 45 mm | 40 mm | 41 mm | – | – | – | – | – | – | 15 µg/mL (≈ 28.2 µM) | 25 µg/mL (≈ 47 µM) | 20 µg/mL (≈ 37.6 µM)
c1ccc2c(c1)cc1c3ccccc3nc(-c3ccc(-c4ccncc4)cc3)n21 | 50 mm | 48 mm | 42 mm | 35 mm | 25 mm | 42 mm | 22 mm | 18 mm | 21 mm | 5 µg/mL (≈ 13.5 µM) | 10 µg/mL (≈ 26.9 µM) | 15 µg/mL (≈ 40.4 µM) | 20 µg/mL (≈ 53.8 µM) | 25 µg/mL (≈ 67.3 µM) | 30 µg/mL (≈ 80.8 µM) | 25 µg/mL (≈ 67.3 µM) | 30 µg/mL (≈ 80.8 µM) | 25 µg/mL (≈ 67.3 µM)
